Data taken from patent publication US20040142952A1, “Triazoloquinazoline and pyrazolotriazolopyrimidine derivatives, medicinal compositions, adenosine a3 receptor affinity agents, ocular tension lowering agents, preparations for preventing and treating glaucoma and method of lowering ocular tension” (priority 2001, published 2004).

melting point	Compound
202 to 203 °C	CCCCc1nc2nn(CCO)cc2c2nc(-c3ccc(F)cc3)nn12 [Example 135, 5-n-butyl-2-(4-fluorophenyl)-8-(2-hydroxyethyl)pyrazolo[4,3-e]-1,2,4-triazolo[1,5-c]pyrimidine]
134 to 136 °C	CCCCc1nc2c(cnn2CCO)c2nc(-c3ccc(C)cc3)nn12 [Example 136, 5-n-butyl-7-(2-hydroxyethyl)-2-(4-methylphenyl)pyrazolo[4,3-e]-1,2,4-triazolo[1,5-c]pyrimidine]
171 to 173 °C	CCCCc1nc2nn(CCO)cc2c2nc(-c3ccc(C)cc3)nn12 [Example 137, 5-n-butyl-8-(2-hydroxyethyl)-2-(4-methylphenyl)pyrazolo[4,3-e]-1,2,4-triazolo[1,5-c]pyrimidine]
164 to 164.5 °C	CCCCc1nc2c(cnn2CCO)c2nc(-c3ccc(Cl)cc3)nn12 [Example 138, 5-n-butyl-2-(4-chlorophenyl)-7-(2-hydroxyethyl)pyrazolo[4,3-e]-1,2,4-triazolo[1,5-c]pyrimidine]
189 to 190.5 °C	CCCCc1nc2nn(CCO)cc2c2nc(-c3ccc(Cl)cc3)nn12 [Example 139, 5-n-butyl-2-(4-chlorophenyl)-8-(2-hydroxyethyl)pyrazolo[4,3-e]-1,2,4-triazolo[1,5-c]pyrimidine]
147.5 to 148.5 °C	CCCCc1nc2c(cnn2CCO)c2nc(-c3ccc(OC)cc3)nn12 [Example 140, 5-n-butyl-7-(2-hydroxyethyl)-2-(4-methoxyphenyl)pyrazolo[4,3-e]-1,2,4-triazolo[1,5-c]pyrimidine]
178 to 179 °C	CCCCc1nc2nn(CCO)cc2c2nc(-c3ccc(OC)cc3)nn12 [Example 141, 5-n-butyl-8-(2-hydroxyethyl)-2-(4-methoxyphenyl)pyrazolo[4,3-e]-1,2,4-triazolo[1,5-c]pyrimidine]
127 to 128 °C	CCCCc1nc2nn(CC)cc2c2nc(-c3ccc(OC)cc3)nn12 [Example 142, 5-n-butyl-8-ethyl-2-(4-methoxyphenyl)pyrazolo[4,3-e]-1,2,4-triazolo[1,5-c]pyrimidine]
128 to 129 °C	CCCCc1nc2nn(CC)cc2c2nc(-c3ccc(C)cc3)nn12 [Example 143, 5-n-butyl-8-ethyl-2-(4-methylphenyl)pyrazolo[4,3-e]-1,2,4-triazolo[1,5-c]pyrimidine]
146 to 147 °C	CCCCc1nc2nn(CC)cc2c2nc(-c3ccc(F)cc3)nn12 [Example 144, 5-n-butyl-8-ethyl-2-(4-fluorophenyl)pyrazolo[4,3-e]-1,2,4-triazolo[1,5-c]pyrimidine]
141 to 142 °C	CCCCc1nc2nn(CC)cc2c2nc(-c3ccc(Cl)cc3)nn12 [Example 145, 5-n-butyl-2-(4-chlorophenyl)-8-ethylpyrazolo[4,3-e]-1,2,4-triazolo[1,5-c]pyrimidine]
112 to 112.5 °C	CCCCc1nc2nn(CCC)cc2c2nc(-c3ccc(OC)cc3)nn12 [Example 146, 5-n-butyl-2-(4-methoxyphenyl)-8-n-propylpyrazolo[4,3-e]-1,2,4-triazolo[1,5-c]pyrimidine]
247.5 to 249 °C	COc1ccc(-c2nc3c4cnnc-4nc(CCCC(=O)O)n3[nH]2)cc1 [Example 148, 4-[2-(4-methoxyphenyl)pyrazolo[4,3-e]-1,2,4-triazolo[1,5-c]pyrimidin-5-yl]butyric acid]
253.5 to 255.5 °C	O=C(O)CCCc1nc2nncc-2c2nc(-c3ccc(Cl)cc3)[nH]n12 [Example 149, 4-[2-(4-chlorophenyl)pyrazolo[4,3-e]-1,2,4-triazolo[1,5-c]pyrimidin-5-yl]butyric acid]
249 to 251 °C	Cc1ccc(-c2nc3c4cnnc-4nc(CCCC(=O)O)n3[nH]2)cc1 [Example 150, 4-[2-(4-methylphenyl)pyrazolo[4,3-e]-1,2,4-triazolo[1,5-c]pyrimidin-5-yl]butyric acid]
271 to 272.5 °C	CCCCc1nc2c(cnn2CC(=O)O)c2nc(-c3ccccc3)nn12 [Example 151, 2-(5-n-butyl-2-phenylpyrazolo[4,3-e]-1,2,4-triazolo[1,5-c]pyrimidin-7-yl)acetic acid]
> 281 °C (dec.)	CCCCc1nc2nn(CC(=O)O)cc2c2nc(-c3ccccc3)nn12 [Example 152, 2-(5-n-butyl-2-phenylpyrazolo[4,3-e]-1,2,4-triazolo[1,5-c]pyrimidin-8-yl)acetic acid]
211 to 211.5 °C	O=C(O)CCCc1nc2ccccc2c2nc(-c3ccccc3)nn12 [Example 153, 4-(2-phenyl-1,2,4-triazolo[1,5-c]quinazolin-5-yl)butyric acid]
219 to 220 °C	O=C(O)CCCc1nc2ccccc2c2nc(-c3ccc(Br)cc3)nn12 [Example 154, 4-[2-(4-bromophenyl)-1,2,4-triazolo[1,5-c]quinazolin-5-yl]butyric acid]
225 to 226 °C	O=C(O)CCCc1nc2ccccc2c2nc(-c3ccc(F)cc3)nn12 [Example 155, 4-[2-(4-fluorophenyl)-1,2,4-triazolo[1,5-c]quinazolin-5-yl]butyric acid]
227 to 228 °C	O=C(O)CCCc1nc2ccccc2c2nc(-c3ccc(Cl)cc3)nn12 [Example 156, 4-[2-(4-chlorophenyl)-1,2,4-triazolo[1,5-c]quinazolin-5-yl]butyric acid]
214 to 215 °C	CCCCCc1nc2ccccc2c2nc(-c3ccc(O)cc3)nn12 [Example 157, 2-(4-hydroxyphenyl)-5-n-pentyl-1,2,4-triazolo[1,5-c]quinazoline]
